Results taken from patent US6734205B2, “Substituted guanidine derivatives” (Sumitomo Pharmaceuticals Company Limited, priority 1999, dated 2004).
Where a name gives a salt, the structure may show the parent alone.

System: not given
Assay: not given

| Compound | melting point |
| --- | --- |
| Cn1c(C(=O)NC(=N)N)cc2c(C(F)(F)F)ccc(OS(=O)(=O)O)c21 (as salt: sulfate) [Example 13, 2-[[[Amino(imino)methyl]amino]carbonyl]-1-methyl-4-(trifluoromethyl)-1H-indol-7-yl Hydrogen Sulfate] | 298 °C (dec.) |
| Cn1c(C(=O)NC(=N)N)cc2c(C(F)(F)F)ccc(CCS(=O)(=O)O)c21 [Example 40, 2-[2-[[[Amino(imino)methyl]amino]carbonyl]-1-methyl-4-(trifluoromethyl)-1H-indol-7-yl]ethanesulfonic Acid] | ≥ 300 °C |
| CS(=O)(=O)O.Cn1c(C(=O)NC(=N)N)cc2cc(O[C@@H]3O[C@H](C(=O)O)[C@@H](O)[C@H](O)[C@H]3O)ccc21 [Example 9, [2-[[[Amino(imino)methyl]amino]carbonyl]-1-methyl-1H-indol-5-yl] β-D-glucopyranosideuronic Acid Methanesulfonate] | 219 °C (dec.) |
| Cn1c(C(=O)NC(=N)N)cc2c(C(F)(F)F)cc(OS(=O)(=O)O)cc21 (as salt: sulfate) [Example 12, 2-[[[Amino(imino)methyl]amino]carbonyl]-1-methyl-4-(trifluoromethyl)-1H-indol-6-yl Hydrogen Sulfate] | 300 °C (dec.) |
| Cn1c(C(=O)NC(=N)N)cc2ccc(OS(=O)(=O)O)cc21 (as salt: sulfate) [Example 7, 2-[[[Amino(imino)methyl]amino]carbonyl]-1-methyl-1H-indol-6-yl Hydrogen Sulfate] | 283 to 284 °C (dec.) |
| Cn1c(C(=O)NC(=N)N)cc2c(C(F)(F)F)cc(CP(=O)(O)O)cc21 [Example 15, [2-[[[amino(imino)methyl]amino]-carbonyl]-1-methyl-4-(trifluoromethyl)-1H-indol-6-yl]-methylphosphonic Acid] | 231 to 266 °C (dec.) |
| Cn1c(C(=O)NC(=N)N)cc2c(Cl)ccc(CP(=O)(O)O)c21 [Example 18, [2-[[[Amino(imino)methyl]amino]carbonyl]-4-chloro-1-methyl-1H-indol-7-yl]methylphosphonic Acid] | 273 to 284 °C (dec.) |
| Cc1ccc(OCC(=O)O)c2c1cc(C(=O)NC(=N)N)n2C [Example 26, [[2-[[[Amino(imino)methyl]amino]carbonyl]-1,4-dimethyl-1H-indol-7-yl]oxy]acetic Acid] | 248 to 252 °C (dec.) |
| CS(=O)(=O)O.Cn1c(C(=O)NC(=N)N)cc2c(C(F)(F)F)ccc(P(=O)(O)O)c21 | 258 °C (dec.) |

Biological target: T1, Na^+/H^+ exchange transport system (Rattus norvegicus, UniProt P26431)
T1 construct: a pH change in isolated ventricular myocytes (rat) under an acidic load; endogenous in cells; host or cells: isolated rat ventricular myocytes
Assay: Inhibitory effect on the Na^+/H^+ exchange transport system (in vitro), pH change in isolated ventricular myocytes under an acidic load
Assay type: cell-based
Description: Inhibitory Effect on the Na^+/H^+ Exchange Transport System (in vitro)
A test was carried out according to the method of Iemori et al. (J. Hypertension, 8, 153(1990)). In detail, inhibitory effect on the Na^+/H^+ exchange transport system was evaluated by using as an indication a pH change in isolated ventricular myocytes (rat) under an acidic load.

T1 sequence (P26431 whole entry): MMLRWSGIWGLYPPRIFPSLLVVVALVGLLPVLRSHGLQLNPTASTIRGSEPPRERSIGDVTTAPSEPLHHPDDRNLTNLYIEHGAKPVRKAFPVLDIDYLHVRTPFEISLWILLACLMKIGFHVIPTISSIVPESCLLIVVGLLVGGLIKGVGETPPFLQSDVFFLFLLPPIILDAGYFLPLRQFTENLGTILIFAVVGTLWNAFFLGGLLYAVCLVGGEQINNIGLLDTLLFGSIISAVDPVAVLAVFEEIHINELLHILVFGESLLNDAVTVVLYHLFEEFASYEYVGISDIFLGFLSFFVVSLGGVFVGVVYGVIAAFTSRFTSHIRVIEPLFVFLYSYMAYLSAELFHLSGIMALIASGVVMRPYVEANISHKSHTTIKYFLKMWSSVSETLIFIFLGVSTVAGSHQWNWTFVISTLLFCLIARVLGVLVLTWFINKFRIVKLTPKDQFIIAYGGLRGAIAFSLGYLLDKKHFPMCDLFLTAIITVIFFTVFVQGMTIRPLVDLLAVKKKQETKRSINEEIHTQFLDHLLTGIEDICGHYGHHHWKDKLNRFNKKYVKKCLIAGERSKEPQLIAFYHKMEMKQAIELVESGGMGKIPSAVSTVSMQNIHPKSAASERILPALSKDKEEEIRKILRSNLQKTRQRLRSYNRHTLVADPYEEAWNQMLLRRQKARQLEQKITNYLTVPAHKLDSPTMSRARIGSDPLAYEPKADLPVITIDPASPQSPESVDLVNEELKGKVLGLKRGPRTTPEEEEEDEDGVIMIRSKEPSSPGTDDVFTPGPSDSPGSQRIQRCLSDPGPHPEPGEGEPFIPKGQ

| Compound | IC50 [nM] |
| --- | --- |
| Cc1c(OS(=O)(=O)O)ccc2c1cc(C(=O)NC(=N)N)n2C [Example 1, 2-[[[amino(imino)methyl]amino]-carbonyl]-1,4-dimethyl-1H-indol-5-yl Hydrogen Sulfate] | 10000 |
| Cc1cc(OS(=O)(=O)O)cc2c1cc(C(=O)NC(=N)N)n2C [Example 2, 2-[[[Amino(imino)methyl]amino]carbonyl]-1,4-dimethyl-1H-indol-6-yl Hydrogen Sulfate] | 70 |
| Cc1ccc(OS(=O)(=O)O)c2c1cc(C(=O)NC(=N)N)n2C [Example 4, 2-[[[amino(imino)methyl]amino]-carbonyl]-1,4-dimethyl-1H-indol-7-yl Hydrogen Sulfate] | 200 |
